In the first assay the target is T1, human Fatty Acid Synthase (Homo sapiens, UniProt P49327).
T1 construct: made in house
T1 sequence (P49327 whole entry): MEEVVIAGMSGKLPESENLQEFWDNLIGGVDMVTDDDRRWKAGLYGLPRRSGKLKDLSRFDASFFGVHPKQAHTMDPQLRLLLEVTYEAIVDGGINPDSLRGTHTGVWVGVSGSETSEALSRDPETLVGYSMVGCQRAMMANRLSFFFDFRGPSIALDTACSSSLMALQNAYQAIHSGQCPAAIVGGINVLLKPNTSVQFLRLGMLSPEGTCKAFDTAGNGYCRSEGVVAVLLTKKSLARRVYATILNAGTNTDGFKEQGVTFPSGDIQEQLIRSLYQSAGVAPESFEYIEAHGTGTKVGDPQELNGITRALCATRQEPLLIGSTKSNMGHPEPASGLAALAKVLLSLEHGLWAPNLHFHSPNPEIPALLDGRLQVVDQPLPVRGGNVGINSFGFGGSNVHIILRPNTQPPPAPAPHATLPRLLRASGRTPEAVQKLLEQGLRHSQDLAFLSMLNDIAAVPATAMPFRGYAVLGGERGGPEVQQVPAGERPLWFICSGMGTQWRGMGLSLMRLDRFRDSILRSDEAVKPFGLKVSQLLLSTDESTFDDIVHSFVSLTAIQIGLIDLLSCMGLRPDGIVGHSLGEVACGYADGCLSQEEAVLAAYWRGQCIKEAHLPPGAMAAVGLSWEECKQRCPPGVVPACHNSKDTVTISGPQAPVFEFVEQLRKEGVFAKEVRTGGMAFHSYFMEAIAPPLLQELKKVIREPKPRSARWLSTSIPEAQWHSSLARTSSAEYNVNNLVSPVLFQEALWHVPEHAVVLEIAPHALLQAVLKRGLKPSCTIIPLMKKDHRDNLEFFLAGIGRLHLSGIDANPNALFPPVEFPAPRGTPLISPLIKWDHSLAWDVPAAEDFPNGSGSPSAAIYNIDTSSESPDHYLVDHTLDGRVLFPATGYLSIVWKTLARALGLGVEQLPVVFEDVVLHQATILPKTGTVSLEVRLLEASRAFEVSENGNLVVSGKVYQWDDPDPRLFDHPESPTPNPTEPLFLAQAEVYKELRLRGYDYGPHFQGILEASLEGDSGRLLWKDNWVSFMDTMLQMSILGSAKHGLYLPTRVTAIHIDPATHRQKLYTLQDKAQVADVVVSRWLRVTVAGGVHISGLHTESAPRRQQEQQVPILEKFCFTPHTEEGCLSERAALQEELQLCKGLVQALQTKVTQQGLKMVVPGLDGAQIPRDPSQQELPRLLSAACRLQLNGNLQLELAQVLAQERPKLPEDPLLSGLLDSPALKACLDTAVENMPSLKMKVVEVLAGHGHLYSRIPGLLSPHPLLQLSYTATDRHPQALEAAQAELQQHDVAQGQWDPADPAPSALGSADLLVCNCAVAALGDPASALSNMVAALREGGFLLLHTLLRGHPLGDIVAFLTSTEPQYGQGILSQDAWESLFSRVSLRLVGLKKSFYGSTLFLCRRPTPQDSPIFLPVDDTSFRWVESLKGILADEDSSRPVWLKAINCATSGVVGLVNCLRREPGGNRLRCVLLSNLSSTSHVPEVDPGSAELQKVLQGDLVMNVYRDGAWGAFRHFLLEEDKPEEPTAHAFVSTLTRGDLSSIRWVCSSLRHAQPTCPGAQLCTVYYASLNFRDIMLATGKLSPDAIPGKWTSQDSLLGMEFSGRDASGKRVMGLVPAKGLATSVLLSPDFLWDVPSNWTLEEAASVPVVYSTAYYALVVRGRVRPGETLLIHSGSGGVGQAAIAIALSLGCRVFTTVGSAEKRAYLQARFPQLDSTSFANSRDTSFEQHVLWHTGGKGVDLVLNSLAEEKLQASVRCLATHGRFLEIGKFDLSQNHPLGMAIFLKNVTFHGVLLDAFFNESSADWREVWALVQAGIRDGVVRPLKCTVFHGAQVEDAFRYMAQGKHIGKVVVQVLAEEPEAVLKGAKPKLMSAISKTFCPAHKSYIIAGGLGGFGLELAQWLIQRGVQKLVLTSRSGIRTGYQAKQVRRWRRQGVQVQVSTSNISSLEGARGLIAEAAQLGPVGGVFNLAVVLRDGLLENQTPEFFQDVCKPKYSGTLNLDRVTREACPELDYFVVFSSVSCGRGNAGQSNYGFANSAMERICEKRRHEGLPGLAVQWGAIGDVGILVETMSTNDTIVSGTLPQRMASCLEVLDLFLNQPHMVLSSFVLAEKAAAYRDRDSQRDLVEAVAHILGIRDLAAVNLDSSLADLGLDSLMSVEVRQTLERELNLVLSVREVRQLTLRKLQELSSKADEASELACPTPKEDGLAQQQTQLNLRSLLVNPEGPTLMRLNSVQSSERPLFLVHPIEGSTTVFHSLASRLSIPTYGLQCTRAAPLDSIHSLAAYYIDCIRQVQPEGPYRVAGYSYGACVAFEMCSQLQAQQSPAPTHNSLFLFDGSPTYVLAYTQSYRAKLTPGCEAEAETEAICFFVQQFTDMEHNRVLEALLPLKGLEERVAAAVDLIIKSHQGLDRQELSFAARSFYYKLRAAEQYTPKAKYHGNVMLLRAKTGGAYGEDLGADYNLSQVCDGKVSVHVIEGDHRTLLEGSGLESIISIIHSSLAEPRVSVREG
As to the kind of experiment: Human FAS enzyme assay (decrease in NADPH fluorescence). The following applies: % inhibition at a concentration of 100 μmolar. It is filed as biochemical. Here is the method: Human and Rat FAS Enzyme Assay.
Fatty acid synthase is an enzyme complex that harbours seven enzymatic activities catalysing the reductive synthesis of long chain fatty acids from acetyl CoA and malonyl CoA to palmitate. When acetyl CoA and malonyl CoA are forming palmitate NADPH is consumed forming NADP. Since NADPH is fluorescent but not NADP the reaction can be measured by analysing the decrease in fluorescence.
Compounds were added to a black 384 well plate (Matrix) in a volume of 5 μl consisting of 20% DMSO and 80% Tris buffer pH 7.5, at a top concentration of 1 mM. NADPH, 30 μl of 166.6 μM, formulated in assay buffer (0.1M Tris ph7.5, 0.1 mM EDTA, 1 mM glutathione, 0.05% BSA), was then added to all of the wells of the plate. Fatty acid synthase Human or rat enzyme (0.4 μg, produced in house), dissolved in 20 mM Tris/HCl pH 7.5, 5 mM BOG, 1 mM TCEP, 10% glycerol, 1 mM EDTA, 150 mM NaCl, was then added to the plate in a volume of 10 μl. Enzyme was added to all but the last two columns of the plate, to which, 10 μl of assay buffer was added (0.1M Tris ph7.5, 0.1 mM EDTA, 1 mM glutathione, 0.05% BSA) to provide a no enzyme assay control. Following a 15-minute incubation period, at room temperature, the plates were read on an Envision plate reader using 340 nm excitation and 460 nm emission filters. This served as a time zero background read. Substrates (an equal mix of both malonyl and acetyl CoA) were then added to the plates in a total volume of 5 μl. The concentrations of malonyl and acetyl CoA in the mixture were 500 μM and 150 μM respectively. Both were prepared as 10 mM stock solutions in distilled water and were subsequently diluted to working concentrations in assay buffer. Plates were then incubated for a further 60 minutes, at room temperature, before being read again on the Envision reader using the same parameters as previously used. The data was analysed by subtracting the background time zero data from that generated following the final 60 minute incubate and the percent inhibition compared to the maximum and minimum assay controls was determined. Sigmoid curves were fitted using Origin 7.5 Client software and IC50 values were determined.
On to `CCS(=O)(=O)N1CC[C@@H](NC(=O)Nc2cc(C(=O)N3CCC(c4ccc(C#N)cc4)CC3)ccc2C)C1` [Example 219, 3-[5-[4-(4-cyanophenyl)piperidine-1-carbonyl]-2-methyl-phenyl]-1-[(3R)-1-ethylsulfonylpyrrolidin-3-yl]urea], for which the inhibition at 100 µM was 88.8%.

Turning to `CCC(=O)NC(C)(C)CNC(=O)Nc1cc(C(=O)N2CCC(c3ccc(C#N)cc3)CC2)ccc1C` [Example 262, N-[1-[[5-[4-(4-cyanophenyl)piperidine-1-carbonyl]-2-methyl-phenyl]carbamoylamino]-2-methyl-propan-2-yl]propanamide], the inhibition at 100 µM turned out to be 98.7%. As to `Cc1ccc(C(=O)N2CCC(c3ccc(C#N)cc3)CC2)cc1NC(=O)NC(C)c1cccnc1` (centres unmarked) [Example 354, 1-[5-[4-(4-cyanophenyl)piperidine-1-carbonyl]-2-methyl-phenyl]-3-(1-pyridin-3-ylethyl)urea], the inhibition at 100 µM was determined as 91.3%.

Turning to `Cc1cc(CNC(=O)Nc2cc(C(=O)N3CCC(c4ccc(C#N)cc4)CC3)ccc2C)on1` [Example 245, 1-[5-[4-(4-cyanophenyl)piperidine-1-carbonyl]-2-methyl-phenyl]-3-[(3-methyl-1,2-oxazol-5-yl)methyl]urea], the inhibition at 100 µM is 94.3%. For `Cc1ccc(C(=O)N2CCC(c3ccc(C#N)cc3)CC2)cc1NC(=O)NC1CN(C(=O)OC(C)(C)C)C1` [Example 97, tert-butyl 3-[[5-[4-(4-cyanophenyl)piperidine-1-carbonyl]-2-methyl-phenyl]carbamoylamino]azetidine-1-carboxylate], the inhibition at 100 µM is 95.5%. The same measure, in the same setting: as for `Cc1ccc(C(=O)N2CCC(c3ccc(C#N)cc3)CC2)cc1NC(=O)NCCCC(=O)O` [Example 407, 4-[[5-[4-(4-cyanophenyl)piperidine-1-carbonyl]-2-methylphenyl]carbamoylamino]butanoic acid], the figure is 104%; as for `Cc1ccc(C(=O)N2CCC(c3ccc(C#N)cc3)CC2)cc1NC(=O)N[C@@H]1CCN(S(C)(=O)=O)C1` [Example 218, 1-[5-[4-(4-cyanophenyl)piperidine-1-carbonyl]-2-methyl-phenyl]-3-[(3R)-1-methylsulfonylpyrrolidin-3-yl]urea], 84.4%; as for `Cc1ccc(C(=O)N2CCC(c3ccc(C#N)cc3)CC2)cc1NC(=O)N[C@@H]1CCC(=O)NC1` [Example 265, 1-[5-[4-(4-cyanophenyl)piperidine-1-carbonyl]-2-methyl-phenyl]-3-[(3R)-6-oxo-3-piperidyl]urea], 90.6%. On the same count and under the same terms, as for `Cc1ccc(C(=O)N2CCC(c3ccc(C#N)cc3)CC2)cc1NC(=O)NC(C)c1ccc(F)cc1` (centres unmarked) [Example 88, 1-[5-[4-(4-cyanophenyl)piperidine-1-carbonyl]-2-methyl-phenyl]-3-[1-(4-fluorophenyl)ethyl]urea], the figure is 87.6%; as for `Cc1ccc(C(=O)N2CCC(c3ccc(C#N)cc3)CC2)cc1NC(=O)NC1CCNCC1` [Example 211, 1-[5-[4-(4-cyanophenyl)piperidine-1-carbonyl]-2-methyl-phenyl]-3-(4-piperidyl)urea], 87.4%. As to `Cc1ccc(NC(=O)NCc2cccnc2)cc1C(=O)N1CCC(c2ccc(C#N)cc2)CC1` [Example 25, 1-[3-[4-(4-cyanophenyl)piperidine-1-carbonyl]-4-methyl-phenyl]-3-(pyridin-3-ylmethyl)urea], the inhibition at 100 µM turned out to be 79.7%. In the case of `Cc1ccc(C(=O)N2CCC(c3ccc(C#N)cc3)CC2)cc1NC(=O)N[C@H]1CC[C@H](NS(=O)(=O)N(C)C)C1` [Example 323, 1-[5-[4-(4-cyanophenyl)piperidine-1-carbonyl]-2-methyl-phenyl]-3-[(1S,3S)-3-(dimethylsulfamoylamino)cyclopentyl]urea], the inhibition at 100 µM is 94%. Still for that read-out and setting: as for `Cc1ccc(C(=O)N2CCC(c3ccc(C#N)cc3)CC2)cc1NC(=O)NC1CCC1` [Example 287, 1-[5-[4-(4-cyanophenyl)piperidine-1-carbonyl]-2-methyl-phenyl]-3-cyclobutyl-urea], the figure is 92.4%. `Cc1ccc(C(=O)N2CCC(c3ccc(C#N)cc3)CC2)cc1NC(=O)NC1CN2CCC1CC2` (stereo in doubt) [Example 270, 3-[(8S)-1-azabicyclo[2.2.2]oct-8-yl]-1-[5-[4-(4-cyanophenyl)piperidine-1-carbonyl]-2-methyl-phenyl]urea]: the inhibition at 100 µM came to 89.4%. On to `Cc1ccc(C(=O)N2CCC(c3ccc(C#N)cc3)CC2)cc1NC(=O)NCc1ccccc1` [Example 32, 3-benzyl-1-[5-[4-(4-cyanophenyl)piperidine-1-carbonyl]-2-methyl-phenyl]urea], for which the inhibition at 100 µM was 95.5%. On the same count and under the same terms, as for `Cc1ccc(C(=O)N2CCC(c3ccc(C#N)cc3)CC2)cc1NC(=O)NCC(C)C` [Example 42, 1-[5-[4-(4-cyanophenyl)piperidine-1-carbonyl]-2-methyl-phenyl]-3-(2-methylpropyl)urea], the figure is 83.8%. Still for that read-out and setting: as for `Cc1ccc(C(=O)N2CCC(c3ccc(F)cc3)CC2)cc1NC(=O)NC1CCNC1` (centres unmarked) [Example 349, 1-[5-[4-(4-fluorophenyl)piperidine-1-carbonyl]-2-methyl-phenyl]-3-pyrrolidin-3-yl-urea], the figure is 88.7%. Same read-out and setting: the result for `Cc1ccc(C(=O)N2CCC(c3ccc(C#N)cc3)CC2)cc1NC(=O)NCc1ccccn1` [Example 52, 1-[5-[4-(4-cyanophenyl)piperidine-1-carbonyl]-2-methyl-phenyl]-3-(pyridin-2-ylmethyl)urea] reads 94.4%; that for `Cc1ccc(NC(=O)N[C@H](C)c2ccccc2)cc1C(=O)N1CCC(c2ccc(C#N)cc2)CC1` [Example 37, 3-[3-[4-(4-cyanophenyl)piperidine-1-carbonyl]-4-methyl-phenyl]-1-[(1R)-1-phenylethyl]urea], 74.3%; that for `Cc1ccc(C(=O)N2CCC(O)(c3ccc(Br)cc3)CC2)cc1NC(=O)NC(C)C` [Example 39, 1-[5-[4-(4-bromophenyl)-4-hydroxy-piperidine-1-carbonyl]-2-methyl-phenyl]-3-propan-2-yl-urea], 79.1%. Regarding `CCCCNC(=O)Nc1cc(C(=O)N2CCC(c3ccc(C#N)cc3)CC2)ccc1C` [Example 1, 1-butyl-3-[5-[4-(4-cyanophenyl)piperidine-1-carbonyl]-2-methyl-phenyl]urea], the inhibition at 100 µM stood at 95.6%. Still for that read-out and setting: as for `Cc1ccc(C(=O)N2CCC(c3ccc(C#N)cc3)CC2)cc1NC(=O)NCc1ncc(F)cc1F` [Example 367, 1-[5-[4-(4-cyanophenyl)piperidine-1-carbonyl]-2-methylphenyl]-3-[(3,5-difluoropyridin-2-yl)methyl]urea], the figure is 107%.

Regarding `Cc1ccc(C(=O)N2CCC(c3ccc(C#N)cc3)CC2)cc1NC(=O)NCCNC(=O)c1cccs1` [Example 117, N-[2-[[5-[4-(4-cyanophenyl)piperidine-1-carbonyl]-2-methyl-phenyl]carbamoylamino]ethyl]thiophene-2-carboxamide], the inhibition at 100 µM is 84.5%. For the molecule `Cc1ccc(C(=O)N2CCC(c3ccc(C#N)cc3)CC2)cc1NC(=O)N1CCCC1` [Example 10, N-[5-[4-(4-cyanophenyl)piperidine-1-carbonyl]-2-methyl-phenyl]pyrrolidine-1-carboxamide], the inhibition at 100 µM is 83.5%. Regarding `Cc1ccc(C(=O)N2CCC(c3ccc(C(=O)N(C)C)cc3)CC2)cc1NC(=O)NC(C)C` [Example 124, N,N-dimethyl-4-[1-[4-methyl-3-(propan-2-ylcarbamoylamino)benzoyl]-4-piperidyl]benzamide], the inhibition at 100 µM came out at 78%. As for `CCS(=O)(=O)NCCCNC(=O)Nc1cc(C(=O)N2CCC(c3ccc(C#N)cc3)CC2)ccc1C` [Example 216, 3-[5-[4-(4-cyanophenyl)piperidine-1-carbonyl]-2-methyl-phenyl]-1-[3-(ethylsulfonylamino)propyl]urea], the inhibition at 100 µM was 92.4%. Regarding `Cc1ccc(C(=O)N2CCC(c3ccc(C#N)cc3)CC2)cc1NC(=O)NC1(CO)CCCC1` [Example 194, 1-[5-[4-(4-cyanophenyl)piperidine-1-carbonyl]-2-methyl-phenyl]-3-[1-(hydroxymethyl)cyclopentyl]urea], the inhibition at 100 µM is 84.3%. The same measure, in the same setting: as for `N#Cc1ccc(C2CCN(C(=O)c3ccc(C(F)(F)F)c(NC(=O)NCc4ccccc4)c3)CC2)cc1` [Example 280, 1-benzyl-3-[5-[4-(4-cyanophenyl)piperidine-1-carbonyl]-2-(trifluoromethyl)phenyl]urea], the figure is 90.6%.

Still in this assay, the particulars now being: FAS enzyme assay, IC50 from fitted sigmoid curves.
On to `COc1ccc(NC(=O)NC(C)C)cc1C(=O)N1CCC(c2ccc(C#N)cc2)CC1` [3-[3-[4-(4-cyanophenyl)piperidine-1-carbonyl]-4-methoxyphenyl]-1-propan-2-ylurea], for which the “IC50, inhibition of human Fatty Acid Synthase” value was “do not have IC50s in the range of about 0.001 μM to about 30 μM”.

Values taken from patent US20090118332A1, “Therapeutic Agents - 551” (AstraZeneca AB, priority 2006, published 2009).
